Converted amounts (≈) assume the structure as drawn. Where two headings read alike, the source gives them in different places.
What was measured:
Assay in all cases: MIC, microdilution broth method (NCCLS)
Type in all cases: cell-based
S. aureus ATCC29213 = settings: Staphylococcus aureus, read-out: MIC Values, B: S. aureus ATCC29213
Protocol: (§1) Minimal inhibitory concentration (MIC) has been an indicator of in vitro antibacterial activity widely used in the art. The in vitro antimicrobial activity of the compounds was determined by the microdilution broth method following the test method from the National Committee for Clinical Laboratory Standards (NCCLS). This method is described in the NCCLS Document M7-A4, Vol.17, No.2, “Methods for Dilution Antimicrobial Susceptibility Test for Bacteria that Grow Aerobically—Fourth Edition”, which is incorporated herein by reference.
(§2) In this method two-fold serial dilutions of drug in cation adjusted Mueller-Hinton broth are added to wells in microdilution trays. The test organisms are prepared by adjusting the turbidity of actively growing broth cultures so that the final concentration of test organism after it is added to the wells is approximately 5×10^4 CFU/well.
(§3) Following inoculation of the microdilution trays, the trays are incubated at 35 °C for 16-20 hours and then read. […] The amount of growth in the wells containing the test compound is compared with the amount of growth in the growth-control wells (no test compound) used in each tray. As set forth in Table 1, compounds of the present invention were tested against a variety of Gram positive and Gram negative pathogenic bacteria resulting in a range of activities depending on the organism tested.

E. faecalis ATCC29212 = settings: Enterococcus faecalis, read-out: MIC Values, C: E. faecalis ATCC29212
Protocol: as §1, §2, §3

S. pneumoniae ATCC49619 = settings: Streptococcus pneumoniae, read-out: MIC Values, D: S. pneumoniae ATCC49619
Protocol: as §1, §2, §3

[1] = Table 2, 3,6-Dicarbamoyl Macrolide Derivatives
[2] = Table 3, 6-Carbonate Macrolide Derivatives
[3] = Table 1, 6-Carbamoyl-3-Acyl Macrolide Derivatives

| SMILES | MIC (S. aureus ATCC29213; [2]) [µg/mL] | MIC (E. faecalis ATCC29212; [2]) [µg/mL] | MIC (S. pneumoniae ATCC49619; [2]) [µg/mL] | also measured |
| --- | --- | --- | --- | --- |
| CC[C@H]1OC(=O)[C@H](C)[C@@H](OC(=O)N(C)OC)[C@H](C)[C@@H](O[C@@H]2O[C@H](C)C[C@H](N(C)C)[C@H]2O)[C@](C)(OC(=O)NC/C=C/c2ccc(-c3ncccn3)cc2)C[C@@H](C)C(=O)[C@H](C)[C@H]2NC(=O)O[C@@]21C [Compound 68] |  |  |  | MIC (S. aureus ATCC29213; [1]): 1 µg/mL (≈ 1.08 µM); MIC (E. faecalis ATCC29212; [1]): 0.5 µg/mL (≈ 0.54 µM); MIC (S. pneumoniae ATCC49619; [1]): 0.06 µg/mL (≈ 0.0649 µM) |
| CC[C@H]1OC(=O)[C@H](C)[C@@H](OC(=O)N(CC)CC)[C@H](C)[C@@H](O[C@@H]2O[C@H](C)C[C@H](N(C)C)[C@H]2O)[C@](C)(OC(=O)OC/C=C/c2ccc(-c3cccnn3)cc2)C[C@@H](C)C(=O)[C@H](C)[C@H]2NC(=O)O[C@@]21C [Compound 83, Carbonic acid, (3aS,4R,7R,8S,9S,10R,11R,13R,15R,15aR)-8-[[(diethylamino)carbonyl]oxy]-4-ethyltetradecahydro-3a,7,9,11,13,15-hexamethyl-2,6,14-trioxo-10-[[3,4,6-trideoxy-3-(dimethylamino)-β-D-xylo-hexopyranosyl]oxy]-2H-oxacyclotetradecino[4,3-d]oxazol-11-yl(2E)-3-[4-(3-pyridazinyl)phenyl]-2-propenyl ester] | 1 (≈ 1.07 µM) | 0.5 (≈ 0.533 µM) | 0.06 (≈ 0.064 µM) |  |
| CC[C@H]1OC(=O)[C@H](C)[C@@H](OC(=O)Cc2cccnc2)[C@H](C)[C@@H](O[C@@H]2O[C@H](C)C[C@H](N(C)C)[C@H]2O)[C@](C)(OC(=O)NC/C=C/c2cnc(C(C)(C)C)nc2)C[C@@H](C)C(=O)[C@H](C)[C@H]2NC(=O)O[C@@]21C [Compound 42] |  |  |  | MIC (S. aureus ATCC29213; [3]): 1 µg/mL (≈ 1.07 µM); MIC (E. faecalis ATCC29212; [3]): 0.5 µg/mL (≈ 0.534 µM); MIC (S. pneumoniae ATCC49619; [3]): 0.06 µg/mL (≈ 0.064 µM) |
| CC[C@H]1OC(=O)[C@H](C)[C@@H](OC(=O)N(CC)CC)[C@H](C)[C@@H](O[C@@H]2O[C@H](C)C[C@H](N(C)C)[C@H]2O)[C@](C)(OC(=O)OC/C=C/c2ccc(-c3cnccn3)cc2)C[C@@H](C)C(=O)[C@H](C)[C@H]2NC(=O)O[C@@]21C [Compound 85] | 0.5 (≈ 0.533 µM) | 0.5 (≈ 0.533 µM) | 0.03 (≈ 0.032 µM) |  |
| CC[C@H]1OC(=O)[C@H](C)[C@@H](OC(=O)Cc2cccnc2)[C@H](C)[C@@H](O[C@@H]2O[C@H](C)C[C@H](N(C)C)[C@H]2O)[C@](C)(OC(=O)OC/C=C/c2ccc(-c3ncccn3)cc2)C[C@@H](C)C(=O)[C@H](C)[C@H]2NC(=O)O[C@@]21C [Compound 78] | 0.25 (≈ 0.261 µM) | 0.25 (≈ 0.261 µM) | 0.03 (≈ 0.0313 µM) |  |
| CC[C@H]1OC(=O)[C@H](C)[C@@H](OC(=O)C(C)C)[C@H](C)[C@@H](O[C@@H]2O[C@H](C)C[C@H](N(C)C)[C@H]2O)[C@](C)(OC(=O)OC/C=C/c2ccc(-c3cccnn3)cc2)C[C@@H](C)C(=O)[C@H](C)[C@H]2NC(=O)O[C@@]21C [Compound 82] | 0.5 (≈ 0.55 µM) | 0.5 (≈ 0.55 µM) | 0.06 (≈ 0.066 µM) |  |
| CC[C@H]1OC(=O)[C@H](C)[C@@H](OC(=O)N(CC)CC)[C@H](C)[C@@H](O[C@@H]2O[C@H](C)C[C@H](N(C)C)[C@H]2O)[C@](C)(OC(=O)NC/C=C/c2ccc(-n3cncn3)cc2)C[C@@H](C)C(=O)[C@H](C)[C@H]2NC(=O)O[C@@]21C [Compound 72] |  |  |  | MIC (S. aureus ATCC29213; [1]): 0.5 µg/mL (≈ 0.54 µM); MIC (E. faecalis ATCC29212; [1]): 0.5 µg/mL (≈ 0.54 µM); MIC (S. pneumoniae ATCC49619; [1]): 0.06 µg/mL (≈ 0.0648 µM) |
| CC[C@H]1OC(=O)[C@H](C)[C@@H](OC(=O)C(C)C)[C@H](C)[C@@H](O[C@@H]2O[C@H](C)C[C@H](N(C)C)[C@H]2O)[C@](C)(OC(=O)NC/C=C/c2ccc(-c3cccnn3)cc2)C[C@@H](C)C(=O)[C@H](C)[C@H]2NC(=O)O[C@@]21C [Compound 46] |  |  |  | MIC (S. aureus ATCC29213; [3]): 0.5 µg/mL (≈ 0.551 µM); MIC (E. faecalis ATCC29212; [3]): 0.12 µg/mL (≈ 0.132 µM); MIC (S. pneumoniae ATCC49619; [3]): 0.06 µg/mL (≈ 0.0661 µM) |
| CC[C@H]1OC(=O)[C@H](C)[C@@H](OC(=O)C(C)C)[C@H](C)[C@@H](O[C@@H]2O[C@H](C)C[C@H](N(C)C)[C@H]2OC(C)=O)[C@](C)(OC(=O)NC/C=C/c2ccc(-n3cccn3)cc2)C[C@@H](C)C(=O)[C@H](C)[C@H]2NC(=O)O[C@@]21C [Compound 48] |  |  |  | MIC (S. aureus ATCC29213; [3]): 1 µg/mL (≈ 1.07 µM); MIC (E. faecalis ATCC29212; [3]): 0.5 µg/mL (≈ 0.533 µM); MIC (S. pneumoniae ATCC49619; [3]): 0.06 µg/mL (≈ 0.064 µM) |
| CC[C@H]1OC(=O)[C@H](C)[C@@H](OC(=O)Cc2cccnc2)[C@H](C)[C@@H](O[C@@H]2O[C@H](C)C[C@H](N(C)C)[C@H]2O)[C@](C)(OC(=O)OC/C=C/c2ccc(-c3cccnn3)cc2)C[C@@H](C)C(=O)[C@H](C)[C@H]2NC(=O)O[C@@]21C [Compound 79, 3-Pyridineacetic acid, (3aS,4R,7R,8S,9S,10R,11R,13R,15R,15aR)-4-ethyltetradecahydro-3a,7,9,11,13,15-hexamethyl-2,6,14-trioxo-11-[[[[(2E)-3-[4-(3-pyridazinyl)phenyl]-2-propenyl]oxy]carbonyl]oxy]-10-[[3,4,6-trideoxy-3-(dimethylamino)-β-D-xylo-hexopyranosyl]oxy]-2H-oxacyclotetradecino[4,3-d]oxazol-8-yl ester] | 1 (≈ 1.04 µM) | 0.5 (≈ 0.522 µM) | 0.06 (≈ 0.0626 µM) |  |
| CC[C@H]1OC(=O)[C@H](C)[C@@H](OC(=O)Cc2cccnc2)[C@H](C)[C@@H](O[C@@H]2O[C@H](C)C[C@H](N(C)C)[C@H]2O)[C@](C)(OC(=O)OC/C=C/c2ccc(-c3cnccn3)cc2)C[C@@H](C)C(=O)[C@H](C)[C@H]2NC(=O)O[C@@]21C [Compound 77] | 1 (≈ 1.04 µM) | 0.5 (≈ 0.522 µM) | 0.06 (≈ 0.0626 µM) |  |
| CC[C@H]1OC(=O)[C@H](C)[C@@H](OC(=O)C(C)C)[C@H](C)[C@@H](O[C@@H]2O[C@H](C)C[C@H](N(C)C)[C@H]2O)[C@](C)(OC(=O)OC/C=C/c2cnc3ccccc3c2)C[C@@H](C)C(=O)[C@H](C)[C@H]2NC(=O)O[C@@]21C [Compound 86] | 1 (≈ 1.13 µM) | 0.5 (≈ 0.567 µM) | 0.06 (≈ 0.068 µM) |  |
| CC[C@H]1OC(=O)[C@H](C)[C@@H](OC(=O)C(C)C)[C@H](C)[C@@H](O[C@@H]2O[C@H](C)C[C@H](N(C)C)[C@H]2O)[C@](C)(OC(=O)NC/C=C/C=C/c2cnc(C(C)C)nc2)C[C@@H](C)C(=O)[C@H](C)[C@H]2NC(=O)O[C@@]21C [Compound 44] |  |  |  | MIC (S. aureus ATCC29213; [3]): 2 µg/mL (≈ 2.22 µM); MIC (E. faecalis ATCC29212; [3]): 2 µg/mL (≈ 2.22 µM); MIC (S. pneumoniae ATCC49619; [3]): 0.25 µg/mL (≈ 0.278 µM) |
| CC[C@H]1OC(=O)[C@H](C)[C@@H](OC(=O)N(CC)CC)[C@H](C)[C@@H](O[C@@H]2O[C@H](C)C[C@H](N(C)C)[C@H]2O)[C@](C)(OC(=O)NC/C=C/c2ccc(-c3ccn(C)n3)cc2)C[C@@H](C)C(=O)[C@H](C)[C@H]2NC(=O)O[C@@]21C [Compound 73] |  |  |  | MIC (S. aureus ATCC29213; [1]): 1 µg/mL (≈ 1.06 µM); MIC (E. faecalis ATCC29212; [1]): 0.5 µg/mL (≈ 0.532 µM); MIC (S. pneumoniae ATCC49619; [1]): 0.12 µg/mL (≈ 0.128 µM) |
| CC[C@H]1OC(=O)[C@H](C)[C@@H](OC(=O)Cc2cccnc2)[C@H](C)[C@@H](O[C@@H]2O[C@H](C)C[C@H](N(C)C)[C@H]2O)[C@](C)(OC(=O)OC/C=C/c2cnc3ccccc3c2)C[C@@H](C)C(=O)[C@H](C)[C@H]2NC(=O)O[C@@]21C [Compound 80] | 1 (≈ 1.07 µM) | 0.5 (≈ 0.537 µM) | 0.06 (≈ 0.0644 µM) |  |
| CC[C@H]1OC(=O)[C@H](C)[C@@H](OC(=O)N(CC)CC)[C@H](C)[C@@H](O[C@@H]2O[C@H](C)C[C@H](N(C)C)[C@H]2OC(C)=O)[C@](C)(OC(=O)OC/C=C/c2ccc(-c3ncccn3)cc2)C[C@@H](C)C(=O)[C@H](C)[C@H]2NC(=O)O[C@@]21C [Compound 75] | 1 (≈ 1.02 µM) | 0.5 (≈ 0.51 µM) | 0.25 (≈ 0.255 µM) |  |
| CC[C@H]1OC(=O)[C@H](C)[C@@H](OC(=O)N(CC)CC)[C@H](C)[C@@H](O[C@@H]2O[C@H](C)C[C@H](N(C)C)[C@H]2O)[C@](C)(OC(=O)NC/C=C/c2ccc(-c3cnccn3)cc2)C[C@@H](C)C(=O)[C@H](C)[C@H]2NC(=O)O[C@@]21C [Compound 69] |  |  |  | MIC (S. aureus ATCC29213; [1]): 0.5 µg/mL (≈ 0.534 µM); MIC (E. faecalis ATCC29212; [1]): 0.5 µg/mL (≈ 0.534 µM); MIC (S. pneumoniae ATCC49619; [1]): 0.06 µg/mL (≈ 0.064 µM) |
| CC[C@H]1OC(=O)[C@H](C)[C@@H](OC(=O)Cc2cccnc2)[C@H](C)[C@@H](O[C@@H]2O[C@H](C)C[C@H](N(C)C)[C@H]2O)[C@](C)(OC(=O)OCC#Cc2ccc(-c3ncccn3)cc2)C[C@@H](C)C(=O)[C@H](C)[C@H]2NC(=O)O[C@@]21C [Compound 81] | 0.5 (≈ 0.523 µM) | 0.25 (≈ 0.261 µM) | 0.06 (≈ 0.0628 µM) |  |

Reference: patent US6825172B2, “3-descladinosyl-6-O-carbamoyl and 6-O-carbonoyl macrolide antibacterial agents” (Janssen Pharmaceutica, NV, priority 2002, dated 2004)
